“And” between values parts separate entries of the source, which are not always exact repeats. Equal entries are not always repeated.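 All cell lines were grown in 96-well plates and treated with compound for 48 hours. At the GI50, growth is halved. The concentration for full growth arrest is given as TGI.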
Columns and labels:
Experiment in all cases: NCI-60 cell line screen, 48 h
[1] = tested on: KM12 colon
[2] = tested on: HOP-92 NSCLC
[3] = tested on: A549 NSCLC
[4] = tested on: SK-OV-3 ovarian
[5] = tested on: U251 CNS
[6] = tested on: EKVX NSCLC
[7] = tested on: SK-MEL-5 melanoma
[8] = tested on: BT-549 breast
[9] = tested on: RPMI-8226 leukemia
[10] = tested on: SNB-19 CNS
[11] = tested on: OVCAR-4 ovarian
[12] = tested on: MCF7 breast

Structure (SMILES)	TGI [1]	TGI [2]	TGI [3]	TGI [4]	TGI [5]	TGI [6]	TGI [7]	TGI [8]	TGI [9]	TGI [10]	TGI [11]	TGI [12]	GI50 [1]	GI50 [3]	GI50 [6]	GI50 [7]	GI50 [12]	GI50 [10]
O=C1c2ccccc2C(=O)c2cc(N=Nc3c(O)ccc4ccccc34)ccc21	> 100 µM	> 100 µM	> 100 µM	> 100 µM	> 100 µM	> 100 µM	> 100 µM	> 100 µM	> 100 µM	> 100 µM	> 100 µM	–	–	–	–	–	–	–
c1ccc2c(c1)c1c(n2CCOCCN2CCCC2)CCCC1	–	86.9 µM	> 100 µM	87.7 µM	25.8 µM	75.2 µM	30.3 µM	–	42.2 µM	–	73.8 µM	31.3 µM	–	–	–	–	–	–
N#CN/C(N)=N/C/N=C(\N)NC#N	> 100 µM	> 100 µM	> 100 µM	> 100 µM	> 100 µM	> 100 µM	> 100 µM	–	> 100 µM	> 100 µM	> 100 µM	–	–	–	–	–	–	–
O=C(O)CCC(=O)c1ccc2c(c1)C(C(=O)O)CC2 (configuration not stated)	> 100 µM	> 100 µM	> 100 µM	> 100 µM	> 100 µM	> 100 µM	> 100 µM	–	> 100 µM	> 100 µM	> 100 µM	> 100 µM	–	–	–	–	–	–
CN1CN(c2ccccc2)C2(CCN(CC(C)(c3ccc(F)cc3)C3OCCCO3)CC2)C1=O (configuration not stated)	31.1 µM	–	61.9 µM	67.1 µM	26.6 µM	54.8 µM	30.1 µM	19.2 µM	27.3 µM	42 µM	–	30.2 µM	–	–	–	–	–	–
O=C1CC(c2ccccc2)C2(C(=O)NC(=S)NC2=O)C(c2ccccc2)C1 (configuration not stated)	> 75 µM	> 75 µM	–	–	> 75 µM	> 75 µM	> 75 µM	> 75 µM	73.3 µM	> 75 µM	> 75 µM	> 75 µM	–	–	–	–	–	–
CCOC(=O)c1[nH]c(Br)c(-c2ccc(OC)c(OC)c2)c1Br	–	–	23 µM	–	1.44 µM	43.3 µM	4.3 µM and 6.5 µM	3.16 µM	16.6 µM	17.6 µM	–	17.2 µM	0.0172 µM	0.0564 µM	10.4 µM	0.0339 µM	0.338 µM	0.0137 µM
Brc1ccc(C[P+]2(c3ccccc3)CCCCC2)cc1	> 100 µM	–	> 100 µM	> 100 µM	> 100 µM	> 100 µM	39.1 µM	–	> 100 µM	> 100 µM	–	–	–	–	–	–	–	–
CCOC(=O)c1[nH]c(-c2[nH]c(-c3[nH]c(-c4[nH]c(C(=O)OCC)c(C)c4C(=O)OCC)c(C(=O)OCC)c3C)c(C)c2C(=O)OCC)c(C(=O)OCC)c1C	> 100 µM	–	> 100 µM	> 100 µM	> 100 µM	> 100 µM	> 100 µM	–	> 100 µM	> 100 µM	> 100 µM	> 100 µM	–	–	–	–	–	–
C#C/C=C\CCCC/C=C\C#CC#CCCCC#CC#C[C@H](COS(=O)(=O)O)OS(=O)(=O)O	> 100 µM	> 100 µM	> 100 µM	–	> 100 µM	> 100 µM	> 100 µM	> 100 µM	> 100 µM	> 100 µM	> 100 µM	> 100 µM	–	–	–	–	–	–
NC(=S)/N=C(/c1nc2ccc(Cl)cc2[nH]c1=O)C(O)c1ccccc1Cl (configuration not stated)	> 100 µM	> 100 µM	> 100 µM	> 100 µM	> 100 µM	> 100 µM	–	–	> 100 µM	–	> 100 µM	–	–	–	–	–	–	–
O=[N+]([O-])c1ccc2c(c1)N([O-])C1(CCCCC1)[N+]2=O	42.4 µM	29.1 µM	37 µM	44.2 µM	32.3 µM	29.6 µM	28.9 µM	–	65 µM	> 100 µM	23.7 µM	36.6 µM	–	–	–	–	–	–
c1cc2c(cc1NC1=NCCO1)OCO2	> 100 µM	> 100 µM	> 100 µM	> 100 µM	> 100 µM	> 100 µM	> 100 µM	–	> 100 µM	> 100 µM	> 100 µM	> 100 µM	–	–	–	–	–	–
CCOC(=O)c1nnsc1N/N=C\c1ccc([N+](=O)[O-])cc1	> 100 µM	–	> 100 µM	> 100 µM	> 100 µM	> 100 µM	> 100 µM	> 100 µM	> 100 µM	> 100 µM	> 100 µM	> 100 µM	–	–	–	–	–	–
COC(=O)C1Cc2cc3c(cc2C1=O)CCCC3 (configuration not stated)	> 100 µM	–	> 100 µM	> 100 µM	> 100 µM	> 100 µM	> 100 µM	> 100 µM	> 100 µM	> 100 µM	> 100 µM	> 100 µM	–	–	–	–	–	–
CS(=O)(=O)c1nc(-c2cc3c(c(S(C)(=O)=O)n2)CCCC3)cc2c1CCCCC2	> 100 µM	–	> 100 µM	> 100 µM	> 100 µM	> 100 µM	> 100 µM	> 100 µM	> 100 µM	> 100 µM	> 100 µM	–	–	–	–	–	–	–
COc1ccc(-n2[nH]nc(C(N)=O)c2=O)cc1	> 100 µM	–	> 100 µM	> 100 µM	> 100 µM	> 100 µM	> 100 µM	> 100 µM	> 100 µM	> 100 µM	> 100 µM	> 100 µM	–	–	–	–	–	–
COC(=O)c1ccc(/C=C2\Oc3ccccc3C2=O)cc1	> 100 µM	–	> 100 µM	> 100 µM	> 100 µM	> 100 µM	> 100 µM	> 100 µM	> 100 µM	> 100 µM	> 100 µM	> 100 µM	–	–	–	–	–	–
[N-]=[N+]=NC(c1cn(C2CC(O)C(CO)O2)c(=O)[nH]c1=O)C(Br)Br (configuration not stated)	> 100 µM	> 100 µM	> 100 µM	> 100 µM	> 100 µM	> 100 µM	> 100 µM	–	> 100 µM	> 100 µM	–	–	–	–	–	–	–	–
CN(C(=O)C12C3C4C5C3C1(C(=O)C13C6C7C8C6C1C8C73)C5C42)C(C)(C)C (configuration not stated)	> 50 µM	> 50 µM	> 50 µM	> 50 µM	> 50 µM	> 50 µM	> 50 µM	–	> 42.9 µM	> 50 µM	> 50 µM	–	–	–	–	–	–	–

Reference: PubChem BioAssay (NCI)
